Experimental data as given in patent US5436369A, “Alicyclic phospholipase A2 inhibitors” (Bristol-Myers Squibb Company, priority 1994, dated 1995).

Biological target: T1, PLA2 (Homo sapiens, UniProt P14555)
T1 construct: The enzyme is isolated from human platelets; from tissue; host or cells: human platelets
T1 sequence (P14555 21-144): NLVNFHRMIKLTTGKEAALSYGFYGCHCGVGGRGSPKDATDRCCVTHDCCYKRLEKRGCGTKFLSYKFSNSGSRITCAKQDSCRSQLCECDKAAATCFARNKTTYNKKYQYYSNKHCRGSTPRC
Test: PLA2 Inhibition Assay (14C-oleate labeled E. coli membrane substrate)
Format: biochemical
Conditions: 100 μM, enzyme isolated from human platelets
Experimental: The method used is similar to that reported by Franson, et al. [Jesse, R. L. and Franson R. C., Biochim. Biophys. Acta 575:467-470 (1979); Franson, R. C., Patriarca, P., and Elsback, P., J. Lipid Res. 15: 380-388 (1974)]. The enzyme is isolated from human platelets. The substrate used consists of ^14 C-oleate labeled Escherichia coli membranes. E. coli cells are grown in the presence of ^14 C-oleic acid and then autoclaved to prepare the membranes.
Various concentrations of test compounds are pre-incubated with PLA2 (3.6 μg/mL in a buffer consisting of 25 mM HEPES (pH 7)), 150 mM NaCl, 5.0 mM CaCl2, and 10% DMSO (v/v, test compound solvent) at 37° C. for 7 minutes. The E. coli membrane substrate is then added (0.1 mM phospholipid, 0.005 μCi ^14 C) and the reaction is then incubated at 37° C. for 30 minutes. The reaction is then terminated by the addition of 1.9 mL tetrahydrofuran (THF), and the entire solution is applied to a solid-phase extraction column (aminopropyl resin, Analytichem). The column is rinsed with an additional 1 mL of THF. The free fatty acid product of the reaction is then eluted from the column with 1 mL of 2% acetic acid in THF and collected in a scintillation vial. The amount of free fatty acid product is determined by liquid scintillation counting. The amount of inhibition produced by the test compound is calculated by comparing the counts obtained in the presence of the compound to those obtained in its absence (solvent only). Background counts were determined by performing incubations in the absence of enzyme.
Percent inhibition is determined by the equation: [formula]

[1] = Table 2, Structure 14 (Type IA)
[2] = Table 3, Structure 18 (Type IB)
[3] = Table 4, Structure 20 (Type IB)

| Compound | inhibition at 100 µM [1] [%] | inhibition at 100 µM [2] [%] | inhibition at 100 µM [3] [%] |
| --- | --- | --- | --- |
| O=C(O)/C=C\C(=C\CCc1ccc(C23CC4CC(CC(C4)C2)C3)c(OCc2cc(F)cc(F)c2)c1)c1cccc(C(F)(F)F)c1 [Structure 14s, (2Z),(4Z)-4-(3-Trifluoromethylphenyl)-7-[4-(1-adamantyl)-3-(3,5-difluorobenzyloxy)phenyl]-2,4-heptadienoic acid] | 100 |  |  |
| COc1ccc(COc2cc(CC/C=C(/C=C\C(=O)O)c3cccc(C(F)(F)F)c3)ccc2C23CC4CC(CC(C4)C2)C3)cc1 [Structure 14t, (2Z),(4Z)-4-(3-Trifluoromethylphenyl)-7-[4-(1-adamantyl)-3-(4-methoxybenzyloxy)phenyl]-2,4-heptadienoic acid] | 100 |  |  |
| O=C(O)/C=C\C(=C\CCc1ccc(C23CC4CC(CC(C4)C2)C3)c(OCc2ccccc2)c1)c1cccc(C(F)(F)F)c1 [Structure 14u, (2Z),(4Z)-4-(3-Trifluoromethylphenyl)-7-[4-(1-adamantyl)-3-benzyloxyphenyl]-2,4-heptadienoic acid] | 100 |  |  |
| O=C(O)/C=C\C(=C\CCc1ccc(C23CC4CC(CC(C4)C2)C3)c(OCC(=O)O)c1)c1cccc(C(F)(F)F)c1 [Structure 14v, (2Z),(4Z)-4-(3-Trifluoromethylphenyl)-7-[4-(1-adamantyl)-3-(carboxymethoxy)phenyl]-2,4-heptadienoic acid] | 100 |  |  |
| CC1(C)CCC(C)(C)c2cc(/C=C(/C=C/C(=O)O)c3cccc(C(=O)O)c3)ccc21 [Structure 18a, (2E),(4Z)-4-(3-Carboxyphenyl)-5-(5,6,7,8-tetrahydro-5,5,8,8-tetramethyl-2-naphthalenyl)-2,4-pentadienoic acid] |  | 27 |  |
| CC1(C)CCC(C)(C)c2cc3cc(/C=C(/C=C/C(=O)O)c4cccc(C(=O)O)c4)ccc3cc21 [Structure 18b, (2E),(4Z)-4-(3-Carboxyphenyl)-5-(5,6,7,8-tetrahydro-5,5,8,8-tetramethyl-2-anthracenyl)-2,4-pentadienoic acid] |  | 100 |  |
| CCCCCOc1ccc(/C=C(/C=C/C(=O)O)c2cccc(C(=O)O)c2)cc1OCCCCC [Structure 18c, (2E),(4Z)-4-(3-Carboxyphenyl)-5-(3,4-bispentyloxyphenyl)-2,4-pentadienoic acid] |  | 70 |  |
| CCCCCCCCCCOc1ccc(/C=C(/C=C/C(=O)O)c2cccc(C(=O)O)c2)cc1OCCCCCCCCCC [Structure 18d, (2E),(4Z)-4-(3-Carboxyphenyl)-5-(3,4-bisdecyloxyphenyl)-2,4-pentadienoic a cid] |  | 91 |  |
| CC1(C)CCC(C)(C)c2cc(CC/C=C(/C=C/C(=O)O)c3cccc(C(=O)O)c3)ccc21 [Structure 18e, (2E),(4Z)-4-(3-Carboxyphenyl)-7-(5,6,7,8-tetrahydro-5,5,8,8-tetramethyl-2-naphthalenyl)-2,4-heptadienoic acid] |  | 55 |  |
| CC1(C)CCC(C)(C)c2cc(CC/C=C(/C=C/C(=O)O)c3cccc(C(F)(F)F)c3)ccc21 [Structure 20a, (2E),(4Z)-4-(3-Trifluoromethylphenyl)-7-(5,6,7,8-tetrahydro-5,5,8,8-tetramethyl-2-naphthalenyl)-2,4-heptadienoic acid] |  |  | 52 |
| CC1(C)CCC(C)(C)c2cc(CC/C=C(/C=C/C(=O)O)c3ccc(F)cc3)ccc21 [Structure 20b] |  |  | 73 |
| CC1(C)CCC(C)(C)c2cc(CC/C=C(/C=C/C(=O)O)c3cccc(F)c3)ccc21 [Structure 20c, (2E),(4Z)-4-(3-Fluorophenyl)-7-(5,6,7,8-tetrahydro-5,5,8,8-tetramethyl-2-naphthalenyl)-2,4-heptadienoic acid] |  |  | 67 |
| CC1(C)CCC(C)(C)c2cc(CC/C=C(/C=C/C(=O)O)c3ccccc3)ccc21 [Structure 20d, (2E),(4Z)-4-Phenyl-7-(5,6,7,8-tetrahydro-5,5,8,8-tetramethyl-2-naphthalenyl)-2,4-heptadienoic acid] |  |  | 62 |
